Data: patent publication US20070128596A1, “Reagents and methods for identifying and modulating expression of tumor senescence genes” (priority 2002, published 2007)

How the values were obtained:
Type in all cases: cell-based, human
[1] = system: HCT116 colon carcinoma cells; assay: FACS analysis of cell division by PKH2 fluorescence after doxorubicin treatment; conditions: 200 nM doxorubicin 24 hr
Description: (§1) HCT116 colon carcinoma cells (Myohanen et al., 1998, Cancer Res. 58: 591-593; Accession No. CCL-247, American Type Culture Collection, Manassas, Va.), including wild-type, p21−/− (clone 80S4) and p53−/− (clone 379.2) cell lines (a gift of Dr. B. Vogelstein, Johns Hopkins University) were grown in Dulbecco Modified Eagle Medium with 10% FC2 serum. Cells were plated at 5×10^6 cells per 15-cm plate and treated for 24-hr with 200 nM doxorubicin. Thereafter, cells were allowed to recover in drug-free media up to 10 days. For fluorescence-activated cell sorter (FACS) analysis of cell division, cells were labeled with PKH2 (a lipophilic fluorophore; Sigma Chemical Co., St. Louis, Mo.), which stably incorporates into the plasma membrane and distributes evenly between daughter cells, resulting in gradual decrease in PKH2 fluorescence during consequent cell divisions (Horan et al., 1989, Nature 340: 167-168). FACS analysis and cell sorting carried out as described in Chang et al. (1999, Cancer Res. 59: 3761-3767 and 1999, Oncogene 18: 4808-4818). Sorted fractions of senescent (pKH2^hi) and proliferating (PKH2^lo) cells (90-95% purity) were analyzed for DNA content using propidium iodide (PI) staining and FACS analysis as described by Jordan et al. (1996, Cancer Res. 56: 816-825). […]
Changes in PKH2 fluorescence were monitored by FACS on different days after doxorubicin treatment. […]

[2] = system: HCT116 colon carcinoma cells; assay: DNA content analysis by propidium iodide staining and FACS; conditions: PKH2hi fraction after 200 nM doxorubicin 24 hr
Description: as §1

[3] = system: HCT116 colon carcinoma cells; assay: Senescence-associated β-galactosidase (SA-β-gal) staining; conditions: PKH2hi fraction after 200 nM doxorubicin 24 hr
Description: as §1

[4] = system: HCT116 colon carcinoma cells; assay: Clonogenicity of sorted populations (colony formation); conditions: PKH2hi fraction separated after doxorubicin treatment
Description: as §1

[5] = system: p21; assay: Immunoblotting of p53 and p21 in wild type, p21−/− and p53−/− HCT116 cell lines treated with doxorubicin; conditions: wild type vs p53−/− and p21−/− HCT116
Description: (§2) In these experiments, poly(A)^+ RNA and protein extracts were prepared from PKH2^lo and PKH2^hi cell populations, separated in different experiments 6, 9 or 10 days after release from doxorubicin. Fluorescent cDNA probes were synthesized and used for hybridization with the Human UniGEM V 2.0 cDNA microarray and signal analysis (assays were conducted by IncyteGenomics, St. Louis, Mo., as described at that company's web site, www.incyte.com). Changes in gene expression were verified by semi-quantitative reverse transcription-PCR (RT-PCR), essentially as described (Noonan et al., 1990, Proc. Natl. Acad. Sci. USA 87: 7160-7164), using β-actin as an internal normalization standard and the oligonucleotide primers shown in Table 3. RT-PCR analysis was carried out using two pairs of proliferating- and senescent-cell RNA preparations isolated in independent experiments, with the same results; for a subset of the genes, the assays were reproduced with the same pair of RNA samples. […] Bands were detected using horseradish peroxidase-labeled secondary antibodies and ECL chemiluminescence detection kit (Amersham Pharmacia Biotech, Piscataway, N.J.).

[6] = system: senescence-associated genes in HCT116 cells; assay: RT-PCR of senescence-associated gene expression in wild type, p21−/− and p53−/− HCT116 cells upon doxorubicin treatment
Description: as §2
To elucidate the roles of p53 and p21 in the observed changes in gene expression, expression of senescence-associated genes upon doxorubicin treatment of wild type, p21−/− and p53−/− HCT116 cells was analyzed. RNA samples were isolated before the addition of the drug, immediately after one-day treatment with doxorubicin, and on three consecutive days after the removal of the drug.

[7] = system: Maspin; assay: Immunoblotting of protein products of senescence-associated genes in doxorubicin-treated HCT116 cells
Description: as §2

Structure (SMILES): COc1cccc2c1C(=O)c1c(O)c3c(c(O)c1C2=O)C[C@@](O)(C(=O)CO)C[C@@H]3O[C@H]1C[C@H](N)[C@H](O)[C@H](C)O1 [doxorubicin]
- day on which a proliferating cell population (PKH2lo) emerged ([1]; days after treatment): 4 days
- growth arrest of PI-negative cells (PKH2 fluorescence) ([1]; first 2-3 days after treatment): remained growth-arrested
- cell cycle phase of PKH2hi cells (DNA content) [2]: remained in G2
- SA-β-gal staining of PKH2hi cells [3]: stained positively for SA-β-gal
- colony formation by PKH2hi cells [4]: have lost their proliferative capacity
- p21 protein induction, dependence on p53 [5]: strongly dependent on p53
- Maspin induction in p53−/− cells ([6]; p53−/− HCT116): still readily detectable in p53−/− cells
- BTG2 induction in p53−/− cells ([6]; p53−/− vs wild type HCT116): inducible by doxorubicin in p53−/− cells, albeit to a lesser degree than in the wild type cells
- EPLIN induction in the unsorted cells ([6]; unsorted HCT116 cells, compared with the other growth-inhibitory genes): weakest induction
- Amphiregulin induction, dependence on p53 ([6]; wild type vs p53−/− HCT116): only moderate dependence on p53
- BTG1 induction, dependence on p53 ([6]; wild type vs p53−/− HCT116): independent of p53
- IGFBP-6 induction, dependence on p53 ([6]; wild type vs p53−/− HCT116): no dependence on p53
- MIC-1 induction, dependence on p53 ([6]; wild type vs p53−/− HCT116): only weak dependence on p53
- Maspin induction at the protein level [7]: very strong induction
